In patent publication US20200362380A1, “Novel Biomolecule and Methods of Manufacturing Thereof” (priority 2018, published 2020):

Tested on: plants
Assay: auxin effect on plants (media based agriculture)
Type: in vivo
Details: media based agriculture with and without soil; statement in words only
Text: The resulting monomer can be leached through the media column and recuperated in pure form after filtering out any bacteria using appropriate filtration such as diatomaceous earth or filter paper. This can also be carried out in media based agriculture both with and without soil.

## 3-4 deoxy-glucosamine [monomer]
  auxin effect on plants: pronounced auxin effect
